Assay results from US9591848B2, “Biofilm resistant polymer materials” (Abilene Christian Univ., priority 2008, dated 2017).
“Also recorded” adds a separate entry of the source.

Key:
E. coli = experiment: Biofilm resistance of UV-cured coatings after E. coli growth and staining; format: cell-based; conditions: for biofilm resistance (lack of blue coloring): 15 and 20 weight % monomer in the coating; for biofilm formation: 15 and 20 weight percent monomer, increased E. coli broth concentration, approaching 10^9 cells/mL
From the text: Materials and methods were the same as disclosed in the Examples 1 and 2, above, except that the polymers were not adhered to steel, but to 24-well, plastic (i.e., poly(styrene)) culture plates.
The coatings were applied to and UV-cured onto four uncoated 24-well plastic plates to a calculated thickness of two mils. The monomers of the compositions were phenyl acrylate (PA) as the non-biofilm resistant control monomer, 3-chlorophenyl acrylate (CPA), 2,4-dichlorophenyl acrylate (DCPA), 4-bromophenyl acrylate (BPA) and 2,4-dibromophenyl acrylate (DBPA).
The coatings were cured with the curing apparatus and sterilized with 95% ethanol. E. coli was grown in a LB agar broth and added to the cell plates with sterile, deionized water at four concentrations, one concentration per plate. The plates were incubated for twenty-four hours at 37° C. The E. coli was then rinsed from the plates with sterile, deionized water and sprayed with the cytology fixative [poly(ethylene glycol)-based]. After the fixative was air dried it was soaked with 95% ethanol for ten minutes for further sterilization. The plates were then rinsed with sterile, deionized water and four drops of Hema-diff solution were added for four seconds.

[1] = Roughness of cured coatings by atomic force microscopy (Sy, peak to valley distance); format: physicochemical; conditions: 5, 10, 15 and 20 weight percent monomer in the coating; FIGS. 1 and 2
Method: To determine the roughness of the cured formulations, polymers consisting of each of five monomers were tested using atomic force microscopy (AFM) scanning and applying the non-contact mode dragging of the cantilever. Each of the polymers consisting of the monomers: phenyl acrylate (PA), 3-chlorophenyl acrylate (CPA), 2,4-dichlorophenyl acrylate (DCPA), 4-bromophenyl acrylate (BPA) and 2,4-dibromophenyl acrylate (DBPA) were tested at 5, 10, 15 and 20 percent of the monomer by weight (the “Coating Level”).
Each scanning location was approximately an 80 μm×80 μm area (6400 μm^2). To eliminate the effects of interference on the roughness measurements, two scans were taken at each location in the X and Y direction. These two roughness calculations were averaged to yield the roughness calculation for each location. Three locations were selected for each plate and then the average roughness was calculated for all three locations in order to minimize statistical variance yielding an overall plate roughness average, Sa as determined via Equation 1.
[formula] […] The following equation was used to determine the average peak to valley distance, Sy value, (Equation 2) for each composition at each coating level. Sy=Speak−Svalley Equation 2 The Sy value is the value typically used in the industry to determine the propensity for biofilm resistance of a smooth surface.

Compound | biofilm resistance (lack of blue coloring) (E. coli; FIG. 4) | biofilm formation (E. coli) | smoothness of the coating (Sy) [1] | bacterial growth on the coating (blue tinting) (E. coli; coating containing the internal control monomer, 24 h at 37° C., FIG. 4) | biofilm inhibitory activity (E. coli; monomer without halogens, used as internal standard or control)
C=CC(=O)Oc1cccc(Cl)c1 [CPA, 3-chlorophenyl acrylate] | excellent biofilm resistance | no evidence of biofilm formation | – | – | –
C=CC(=O)Oc1ccc(Br)cc1Br [DBPA, 2,4-dibromophenyl acrylate] | excellent biofilm resistance | no evidence of biofilm formation | – | – | –
C=CC(=O)Oc1ccc(Cl)cc1Cl [DCPA, 2,4-dichlorophenyl acrylate] | excellent biofilm resistance | no evidence of biofilm formation | – | – | –
C=CC(=O)Oc1ccccc1 [PA, phenyl acrylate, reference compound] | – | – | did not enhance the smoothness | bacterial growth | no biofilm inhibitory activity; also recorded: biologically inactive
